Patent US11981680B2, “Substituted thienopyrroles as PAD4 inhibitors” (BRISTOL-MYERS SQUIBB COMPANY, priority 2018, dated 2024)

molecular target: human PAD4 (hPAD4) (Homo sapiens (Human), UniProt Q9UM07); experiment: RFMS Human PAD4 Functional Assay; assay type: biochemical; settings: rapid-fire mass spectrum (RFMS) assay; 5 nM hPAD4 enzyme, 250 μM BAEE, 30 min preincubation at 37° C.
Method: Compounds of the present invention were assayed as inhibitors of PAD4 using the assay protocol described below.
RFMS Human PAD4 Functional Assay:
Compounds were solubilized in 100% DMSO to achieve a10 mM compound concentration. Compound stock solutions were stored at RT. A series of dilutions were prepared in DMSO and mixed 8 times with 20 μL mixing volume. Final top concentration of compound in the assay is 50 μM. Final assay conditions were as follows: • Reaction volume: 26 μl • Assay buffer: 25 mM hepes, pH 7.5, 5 mM NaCl, 1 mM DTT, 0.2 mg/ml BSA, 0.01% CHAPS, 50 μM Calcium, and 5 μM TPEN • Final concentrations: 5 nM hPAD4 enzyme, 250 μM BAEE, and 0.5% DMSO • Total incubation time: 30 mins compound and enzyme preincubation at 37° C., 90 min enzyme/substrate reaction, 30 min reaction with phenyl glyoxal at 37° C. • Stop solution: 40 μl 5% TCA in ACN
0.13 μL of compound solution was added to 13 μL of 10 nM PAD4 in assay buffer. After 30 min 13 μl of 500 μM of BAEE was added in 25 mM hepes, pH 7.5, 5 mM NaCl, 1 mM DTT, 0.2 mg/ml BSA, 0.01% CHAPS, 50 μM Calcium, 5 μM TPEN was added and the reaction incubated for 90 min at 37° C. The enzymatic reaction was quenched by addition of 15 μl of 6.1N TCA, 100% Final Concentration is 20%, 35 μl of 8.5 mM phenyl glyoxal (final concentration 4 mM) is then added and the reaction is incubated for 30 min at 37° C.
After 30 minutes the plates are spun down to remove all precipitate. The enzyme reaction was quenched with an equal volume of methanol containing internal standard (modified citrulline). Samples were loaded onto the Rapid Fire RF300 system (Agilent) wherein they were first sipped for 1000 ms and then directly loaded to a C18 separations cartridge using a mixture of acetonitrile containing 0.01% formic acid for 3000 ms desalting. The flow rate of the mobile phase was 1.5 ml/min. Once the samples were eluted from the cartridge, a mobile phase of acetonitrile containing 0.01% formic acid was used to move the samples into the mass spectrometer for 4000 ms at a flow rate of 1.25 ml/min/Sciex API5500 triple quadrupole mass spectrometer (Applied Biosystems) equipped with ESI was used to analyze the peptidyl citrulline and internal standard ions.
MRM transition of product and internal standard were monitored at m/z 424.5 to 350.4 and m/z 293 to 247 respectively. The dwell time for each transition was set at 200 ms, and the ESI voltage was used at 5500 with a source temperature of 400° C. Extracted ion peaks for each transition were integrated using the Rapid Fire Integrator software. Peak area of analyte was normalized with internal standard.).

Chain of human PAD4 (hPAD4) (Q9UM07 whole entry): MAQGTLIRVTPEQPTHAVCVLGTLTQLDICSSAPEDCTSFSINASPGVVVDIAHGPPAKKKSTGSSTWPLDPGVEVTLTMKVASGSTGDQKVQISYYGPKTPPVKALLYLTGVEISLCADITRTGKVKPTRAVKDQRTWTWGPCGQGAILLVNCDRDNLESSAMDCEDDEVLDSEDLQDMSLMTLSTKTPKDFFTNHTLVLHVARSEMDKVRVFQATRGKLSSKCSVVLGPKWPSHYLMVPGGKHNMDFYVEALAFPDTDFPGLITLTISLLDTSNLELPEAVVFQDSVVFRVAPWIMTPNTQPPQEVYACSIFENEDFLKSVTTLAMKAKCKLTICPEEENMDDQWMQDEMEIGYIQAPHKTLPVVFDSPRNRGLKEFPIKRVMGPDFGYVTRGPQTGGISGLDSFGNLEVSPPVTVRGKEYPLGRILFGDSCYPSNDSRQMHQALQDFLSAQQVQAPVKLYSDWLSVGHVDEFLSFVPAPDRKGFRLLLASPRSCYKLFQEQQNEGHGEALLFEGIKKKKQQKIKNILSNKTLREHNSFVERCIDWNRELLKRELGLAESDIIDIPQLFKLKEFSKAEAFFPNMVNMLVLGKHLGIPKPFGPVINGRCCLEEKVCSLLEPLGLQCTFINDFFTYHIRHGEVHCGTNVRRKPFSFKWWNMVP

Compared with `COc1cc(C(=O)N2C[C@H]3CC[C@@H]2[C@@H]3N)cc2nc(-c3cc4scc(C5CC(O)C5)c4n3CC3CC3)n(C)c12` (mixture of isomers) [Example 7, cis/trans-((1R,4R,7R)-7-amino-2-azabicyclo[2.2.1]heptan-2-yl)(2-(4-(cyclopropylmethyl)-3-(3-hydroxycyclobutyl)-4H-thieno[3,2-b]pyrrol-5-yl)-7-methoxy-1-methyl-1H-benzo[d]imidazol-5-yl)methanone], `COc1cc(C(=O)N2C[C@H]3CC[C@@H]2[C@@H]3N)cc2nc(-c3cc4scc(C5CNC5)c4n3CC3CC3)n(C)c12` [Example 16, ((1R,4R,7R)-7-amino-2-azabicyclo[2.2.1]heptan-2-yl)(2-(3-(azetidin-3-yl)-4-(cyclopropylmethyl)-4H-thieno[3,2-b]pyrrol-5-yl)-7-methoxy-1-methyl-1H-benzo[d]imidazol-5-yl)methanone] is 3.7-fold higher in IC50: 34 nM for the first, 127 nM for the second.

Compared with `COc1cc(C(=O)N2C[C@H]3CC[C@@H]2[C@@H]3N)cc2nc(-c3cc4scc(C5CC(O)C5)c4n3CC3CC3)n(C)c12` (single isomer, unassigned) [Example 22], `COc1cc(C(=O)N2C[C@H]3CC[C@@H]2[C@@H]3N)cc2nc(-c3cc4scc(Br)c4n3CC3CC3)n(C)c12` [Example 1, ((1R,4R,7R)-7-amino-2-azabicyclo[2.2.1]heptan-2-yl)(2-(3-bromo-4-(cyclopropylmethyl)-4H-thieno[3,2-b]pyrrol-5-yl)-7-methoxy-1-methyl-1H-benzo[d]imidazol-5-yl)methanone] is 2.3-fold lower in IC50: 82 nM for the first, 35 nM for the second.

Going from `COc1cc(C(=O)N2C[C@H]3CC[C@@H]2[C@@H]3N)cc2nc(-c3cc4scc(C5CCN(C(C)=O)CC5)c4n3CC3CC3)n(C)c12` [Example 4, 1-(4-(5-(5-((1R,4R,7R)-7-amino-2-azabicyclo[2.2.1]heptane-2-carbonyl)-7-methoxy-1-methyl-1H-benzo[d]imidazol-2-yl)-4-(cyclopropylmethyl)-4H-thieno[3,2-b]pyrrol-3-yl)piperidin-1-yl)ethan-1-one] to `COc1cc(C(=O)N2C[C@H]3CC[C@@H]2[C@@H]3N)cc2nc(-c3cc4scc(C5CC6(CNC6)C5)c4n3CC3CC3)n(C)c12` [Example 20, ((1R,4R,7R)-7-amino-2-azabicyclo[2.2.1]heptan-2-yl)(2-(4-(cyclopropylmethyl)-3-(2-azaspiro[3.3]heptan-6-yl)-4H-thieno[3,2-b]pyrrol-5-yl)-7-methoxy-1-methyl-1H-benzo[d]imidazol-5-yl)methanone], the IC50 rises from 14 nM to 36 nM (2.6-fold). The first is the more potent here.

`COc1cc(C(=O)N2C[C@H](N)C[C@@H](F)C2)cc2nc(-c3cc4scc(Br)c4n3CC3CC3)n(C)c12` [Example 31, ((3R,5R)-3-amino-5-fluoropiperidin-1-yl)(2-(3-bromo-4-(cyclopropylmethyl)-4H-thieno[3,2-b]pyrrol-5-yl)-7-methoxy-1-methyl-1H-benzo[d]imidazol-5-yl)methanone] and `COc1cc(C(=O)N2C[C@H]3CC[C@@H]2[C@@H]3N)cc2nc(-c3cc4scc(CCCO)c4n3CC3CC3)n(C)c12` [Example 14, ((1R,4R,7R)-7-amino-2-azabicyclo[2.2.1]heptan-2-yl)(2-(4-(cyclopropylmethyl)-3-(3-hydroxypropyl)-4H-thieno[3,2-b]pyrrol-5-yl)-7-methoxy-1-methyl-1H-benzo[d]imidazol-5-yl)methanone] are within 1.5-fold of each other in IC50: 60 nM for the first, 56 nM for the second.

`COc1cc(C(=O)N2C[C@H]3CC[C@@H]2[C@@H]3N)cc2nc(-c3cc4scc(-c5ccnn5C)c4n3CC3CC3)n(C)c12` [Example 45, ((1R,4R,7R)-7-amino-2-azabicyclo[2.2.1]heptan-2-yl)(2-(4-(cyclopropylmethyl)-3-(1-methyl-1H-pyrazol-5-yl)-4H-thieno[3,2-b]pyrrol-5-yl)-7-methoxy-1-methyl-1H-benzo[d]imidazol-5-yl)methanone] and `COc1cc(C(=O)N2C[C@H]3CC[C@@H]2[C@@H]3N)cc2nc(-c3cc4scc(-c5ccn(C)n5)c4n3CC3CC3)n(C)c12` [Example 37, ((1R,4R,7R)-7-amino-2-azabicyclo[2.2.1]heptan-2-yl)(2-(4-(cyclopropylmethyl)-3-(1-methyl-1H-pyrazol-3-yl)-4H-thieno[3,2-b]pyrrol-5-yl)-7-methoxy-1-methyl-1H-benzo[d]imidazol-5-yl)methanone] are within 1.5-fold of each other in IC50: 53 nM for the first, 54 nM for the second.

With `COc1cc(C(=O)N2C[C@H]3CC[C@@H]2[C@@H]3N)cc2nc(-c3cc4scc(-c5ccc[nH]5)c4n3CC3CC3)n(C)c12` [Example 46, ((1R,4R,7R)-7-amino-2-azabicyclo[2.2.1]heptan-2-yl)(2-(4-(cyclopropylmethyl)-3-(1H-pyrrol-2-yl)-4H-thieno[3,2-b]pyrrol-5-yl)-7-methoxy-1-methyl-1H-benzo[d]imidazol-5-yl)methanone] the IC50 was 173 nM.
